Test results reported in patent US10738080B2, “Inhibitors of beta integrin-G protein alpha subunit binding interactions” (priority 2010, dated 2020).
Where two headings read alike, the source gives them in different places. No end group written: not given here. *: point of attachment. Myristoyl = CCCCCCCCCCCCCC(=O)*

Key:
[1] = test system: mouse platelets; conditions: 30 μM peptide
Description: (§1) Platelet aggregation assays were carried out as follows: Platelet aggregation and secretion was measured in a turbidometric platelet aggregometer (Chronolog) at 37° C. with stirring (1000 rpm). Washed platelets (3×10^8/ml) in modified Tyrode's buffer were stimulated with thrombin (Enzyme Research Laboratories). For talin knockdown platelet aggregation assay stimulated with manganese and ADP, manganese and ADP was mixed prior to experiment to achieve final concentration of 1 mM manganese and 5 μM ADP in reaction tube. Aggregation traces shown are representative of at least three independent experiments.

[2] = test system: platelets; conditions: ATP secretion
Description: as §1

[3] = test system: human platelets
Description: as §1
Platelet aggregation assays were performed with myristoylated peptide mP5, myristoylated peptide of SEQ: ID NO: 87, or their respective scarmbled control peptides, as essentially described herein. Briefly, washed human platelets were preincubated with 25, 50, 100, 250, or 500 μM peptide solubilized in DMSO.

[4] = test system: human platelets; conditions: PAR4AP 50 μM, 250 μM peptide (150 μM also in FIG. 17G)
Description: Washed human or mouse platelets resuspended in modified Tyrode's buffer (3×10^8/ml, 50 μl) were incubated with 10 μg/ml Oregon Green^488-conjugated fibrinogen (Molecular Probes) and 50 μM PAR4AP for 30 minutes at 22° C. as previously described^26. The reaction was diluted with 0.5 ml of PBS and analyzed by flow cytometry using FACS Caliber (BD Biosciences, San Jose, Calif.).

[5] = target: talin association with β3 (Homo sapiens, UniProt Q9Y490); conditions: 500 μM peptide, 0.025 U/ml thrombin at 22° C.
Description: Cell lysates were incubated with rabbit anti-Gα13 IgG (1.5 μg/ml), anti-integrin β3 rabbit serum (5 μl/ml) or an equal amount of rabbit IgG or pre-immune serum at 4° C. overnight, and subsequently with protein A-conjugated Sepharose beads for 1 hour. For the integrin β3 clustering experiment, human platelets (3×10^8) were stimulated with 0.025 U/ml α-thrombin for 2 minutes at room temperature (to avoid platelet aggregation) with or without 2 mM RGDS, then incubated with 5 μl anti-integrin β3 8053 rabbit serum at room temperature for 1 hour, and 5 μg goat anti-rabbit secondary antibody for another 1 hour. Platelets were then solubilized in modified RIPA Buffer. For the un-clustering control and pre-immune serum control, cells were solubilized in modified RIPA Buffer first, than incubated with 5 μl 8053 serum or pre-immune serum. After 3-6 washes with lysis buffer, immunoprecipitates were analyzed by SDS-polyacrylamide gel electrophoresis and Western blots using antibodies against β3, talin, or Gα13. In some experiments, 500 μM control or inhibitor peptides, mP5, mP7 and mP13 were incubated with platelet lysates prior to immunoprecipitation, or 2 mM RGDS was added into washed human platelets before stimulation by 0.025 U/ml α-thrombin. GST bead pull down analysis was previously described^8. […] Bead-bound proteins were analyzed by immunoblotting.

talin association with β3, sequence (Q9Y490 whole entry): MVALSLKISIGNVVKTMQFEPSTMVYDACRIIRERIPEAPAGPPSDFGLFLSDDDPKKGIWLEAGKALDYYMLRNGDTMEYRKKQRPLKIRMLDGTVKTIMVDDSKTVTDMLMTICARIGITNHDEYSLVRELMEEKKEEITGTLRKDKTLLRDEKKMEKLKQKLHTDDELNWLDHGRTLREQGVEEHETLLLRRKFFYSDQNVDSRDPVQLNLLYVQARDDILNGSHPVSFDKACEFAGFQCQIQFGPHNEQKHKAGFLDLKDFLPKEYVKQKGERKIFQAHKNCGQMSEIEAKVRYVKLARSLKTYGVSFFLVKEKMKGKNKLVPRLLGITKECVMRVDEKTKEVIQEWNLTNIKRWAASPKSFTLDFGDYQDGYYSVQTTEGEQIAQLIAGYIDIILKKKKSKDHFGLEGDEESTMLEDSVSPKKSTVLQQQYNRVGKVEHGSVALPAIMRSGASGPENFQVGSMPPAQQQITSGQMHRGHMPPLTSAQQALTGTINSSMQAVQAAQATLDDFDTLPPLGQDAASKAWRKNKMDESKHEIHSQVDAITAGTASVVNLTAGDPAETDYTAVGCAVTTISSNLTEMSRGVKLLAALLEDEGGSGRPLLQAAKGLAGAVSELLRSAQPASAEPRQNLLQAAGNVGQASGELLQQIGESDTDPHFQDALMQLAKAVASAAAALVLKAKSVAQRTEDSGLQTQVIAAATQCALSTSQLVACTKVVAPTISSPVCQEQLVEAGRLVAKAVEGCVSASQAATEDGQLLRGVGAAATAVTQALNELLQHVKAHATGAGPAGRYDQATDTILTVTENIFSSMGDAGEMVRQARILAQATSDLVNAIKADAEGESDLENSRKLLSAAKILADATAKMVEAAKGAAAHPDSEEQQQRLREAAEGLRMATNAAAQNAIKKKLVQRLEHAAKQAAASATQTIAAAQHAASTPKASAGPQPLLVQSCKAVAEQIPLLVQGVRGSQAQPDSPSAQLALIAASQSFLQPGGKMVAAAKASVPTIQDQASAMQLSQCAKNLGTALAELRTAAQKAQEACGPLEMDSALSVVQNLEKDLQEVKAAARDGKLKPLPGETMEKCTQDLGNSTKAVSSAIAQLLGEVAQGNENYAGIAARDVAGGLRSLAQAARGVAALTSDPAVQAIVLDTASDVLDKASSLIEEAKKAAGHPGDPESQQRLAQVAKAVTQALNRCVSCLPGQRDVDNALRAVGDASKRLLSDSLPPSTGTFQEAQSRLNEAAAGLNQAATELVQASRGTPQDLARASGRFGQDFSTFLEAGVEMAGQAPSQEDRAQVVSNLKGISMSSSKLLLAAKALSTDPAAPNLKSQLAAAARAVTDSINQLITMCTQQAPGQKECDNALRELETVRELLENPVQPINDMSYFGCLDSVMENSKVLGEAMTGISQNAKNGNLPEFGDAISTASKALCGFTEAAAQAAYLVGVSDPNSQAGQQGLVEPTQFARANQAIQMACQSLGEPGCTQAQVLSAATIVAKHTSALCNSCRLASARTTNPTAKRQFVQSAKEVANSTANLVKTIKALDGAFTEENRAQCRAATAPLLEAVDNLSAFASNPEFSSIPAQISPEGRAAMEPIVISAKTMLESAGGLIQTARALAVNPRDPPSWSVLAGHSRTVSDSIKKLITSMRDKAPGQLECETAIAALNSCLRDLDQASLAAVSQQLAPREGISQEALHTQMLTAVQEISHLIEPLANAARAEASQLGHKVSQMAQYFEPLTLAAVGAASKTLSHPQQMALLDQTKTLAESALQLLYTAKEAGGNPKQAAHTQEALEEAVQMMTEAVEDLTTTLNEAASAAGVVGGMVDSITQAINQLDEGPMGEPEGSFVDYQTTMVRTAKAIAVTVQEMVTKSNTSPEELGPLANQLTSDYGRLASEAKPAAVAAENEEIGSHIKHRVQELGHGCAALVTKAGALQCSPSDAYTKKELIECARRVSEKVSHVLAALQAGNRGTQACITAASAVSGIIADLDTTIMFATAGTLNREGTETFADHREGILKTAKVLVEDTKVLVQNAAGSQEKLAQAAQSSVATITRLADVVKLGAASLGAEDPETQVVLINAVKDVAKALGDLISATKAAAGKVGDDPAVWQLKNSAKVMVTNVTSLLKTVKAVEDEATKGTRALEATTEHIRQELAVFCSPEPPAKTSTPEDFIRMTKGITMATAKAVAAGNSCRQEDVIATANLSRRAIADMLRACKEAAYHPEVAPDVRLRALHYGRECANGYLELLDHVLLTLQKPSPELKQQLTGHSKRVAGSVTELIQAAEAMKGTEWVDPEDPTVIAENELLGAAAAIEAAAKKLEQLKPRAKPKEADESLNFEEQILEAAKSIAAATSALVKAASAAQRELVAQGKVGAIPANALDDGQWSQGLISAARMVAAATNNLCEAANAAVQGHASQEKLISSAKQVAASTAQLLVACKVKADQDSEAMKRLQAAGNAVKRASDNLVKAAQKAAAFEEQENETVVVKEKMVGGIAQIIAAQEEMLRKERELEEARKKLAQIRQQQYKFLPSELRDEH

Substance | platelets aggregation induced by thrombin [1] | platelet granule secretion [2] | platelet aggregation induced by thrombin [3] | second wave of platelet aggregation [3] | platelets aggregation induced by thrombin ([3]; 30 μM peptide, human platelets) | platelets aggregation induced by thrombin ([3]; 200 μM peptide) | agonist (PAR4AP)-induced fibrinogen binding to platelets (inside-out signaling) [4] | agonist (PAR4AP)-induced fibrinogen binding to platelets (inside-out signaling) ([4]; listed as Myr-P5) | talin association with β3 [5]
Myr-EEERA [mP5] | inhibited | inhibited | inhibited | inhibited | inhibited | inhibited | no effect | without affecting | not
Myristoyl-KFEEERARAKWDT [mP13] |  |  |  |  |  |  |  |  | inhibited
